Reference: ChEMBL document CHEMBL5506059, “Cyanomethylquinolones as a New Class of Potential Multitargeting Broad-Spectrum Antibacterial Agents” (J Med Chem, 2024)
Converted amounts (≈) assume the structure as drawn. The source made the active and inactive calls. No cut-off for these calls is given here.

Legend:
[1] = test system: Escherichia coli; assay: Potency index, ratio of norfloxacin MIC to test compound MIC for antibacterial activity against Escherichia coli ATCC 25922 assessed as inhibition of bacterial growth incubated for 24 hrs; type: functional
[2] = test system: Staphylococcus aureus; assay: Antibacterial activity against Staphylococcus aureus ATCC 29213 assessed as inhibition of bacterial growth incubated for 24 hrs; type: functional
[3] = test system: Staphylococcus aureus; assay: Antibacterial activity against Staphylococcus aureus clinical isolate assessed as inhibition of bacterial growth incubated for 24 hrs; type: functional
[4] = test system: Escherichia coli; assay: Potency index, ratio of ciprofloxacin MIC to test compound MIC for antibacterial activity against Escherichia coli ATCC 25922 assessed as inhibition of bacterial growth incubated for 24 hrs; type: functional
[5] = test system: Escherichia coli; assay: Antibacterial activity against Escherichia coli clinical isolate assessed as inhibition of bacterial growth incubated for 24 hrs; type: functional
[6] = test system: Klebsiella pneumoniae; assay: Antibacterial activity against Klebsiella pneumoniae clinical isolate assessed as inhibition of bacterial growth incubated for 24 hrs; type: functional
[7] = test system: Enterococcus faecalis; assay: Antibacterial activity against Enterococcus faecalis clinical isolate assessed as inhibition of bacterial growth incubated for 24 hrs; type: functional
[8] = test system: Staphylococcus aureus; assay: Antibacterial activity against methicillin resistant Staphylococcus aureus clinical isolate assessed as inhibition of bacterial growth incubated for 24 hrs; type: functional
[9] = test system: Pseudomonas aeruginosa; assay: Antibacterial activity against Pseudomonas aeruginosa clinical isolate assessed as inhibition of bacterial growth incubated for 24 hrs; type: functional
[10] = test system: Acinetobacter baumannii; assay: Antibacterial activity against Acinetobacter baumannii clinical isolate assessed as inhibition of bacterial growth incubated for 24 hrs; type: functional
[11] = test system: Staphylococcus aureus; assay: Antibacterial activity against Staphylococcus aureus ATCC 25923 assessed as inhibition of bacterial growth incubated for 24 hrs; type: functional
[12] = test system: Escherichia coli; assay: Antibacterial activity against Escherichia coli ATCC 25922 assessed as inhibition of bacterial growth incubated for 24 hrs; type: functional
[13] = test system: Pseudomonas aeruginosa; assay: Antibacterial activity against Pseudomonas aeruginosa ATCC 27853 assessed as inhibition of bacterial growth incubated for 24 hrs; type: functional
[14] = test system: Staphylococcus aureus; assay: Antibacterial activity against Staphylococcus aureus CMCC(B)26001 assessed as inhibition of bacterial growth incubated for 24 hrs; type: functional
[15] = test system: Calf thymus DNA; assay: Binding affinity to calf thymus DNA assessed as DNA-compound complex formation by measuring increase in absorption of DNA at 260 nm at 0 to 3.3 x 10^-8mol/L by UV absorption spectra based analysis; type: nucleic-acid assay; conditions: Bos taurus; dose 0-3.3 10^-8mol/L
[16] = test system: Staphylococcus aureus; assay: Antibacterial activity against Staphylococcus aureus CMCC(B)26003 assessed as inhibition of bacterial growth incubated for 24 hrs; type: functional
[17] = test system: Streptococcus pneumoniae; assay: Antibacterial activity against Streptococcus pneumoniae ATCC 6305 assessed as inhibition of bacterial growth incubated for 24 hrs; type: functional
[18] = test system: Pseudomonas aeruginosa; assay: Resistance development in Pseudomonas aeruginosa assessed as increase in MIC measured after 20 days; type: functional, organism-based; conditions: time 20.0 day
[19] = test system: Staphylococcus aureus; assay: Antibacterial activity against Staphylococcus aureus ATCC 12600 assessed as inhibition of bacterial growth incubated for 24 hrs; type: functional
[20] = test system: Staphylococcus aureus; assay: Antibacterial activity against methicillin resistant Staphylococcus aureus clinical isolate assessed as inhibition of bacterial growth at 1 times MIC incubated under dark condition and measured upto 5 hrs relative to control; type: functional
[21] = test system: Staphylococcus epidermidis; assay: Antibacterial activity against Staphylococcus epidermidis ATCC 12228 assessed as inhibition of bacterial growth incubated for 24 hrs; type: functional
[22] = test system: Calf thymus DNA; assay: Binding affinity to calf thymus DNA assessed as DNA-compound complex formation by measuring hyperchromism at 0 to 3.3 x 10^-8mol/L by UV absorption spectra based analysis; type: nucleic-acid assay; conditions: Bos taurus; dose 0-3.3 10^-8mol/L
[23] = test system: Erythrocyte; assay: Hemolytic activity in human Red blood cells assessed as concentration required for 5% hemolysis measured after 1.5 hrs by absorbance based assay; type: toxicity, cell-based
[24] = test system: Calf thymus DNA; assay: Competitive binding affinity to calf thymus DNA assessed as displacement of neutral red from DNA-neutral red complex by measuring reduction in absorbance at 540 nm at 0 to 2.9x10^-8 mol/L by UV absorption spectroscopy; type: nucleic-acid assay; conditions: Bos taurus; dose 0-2.9 10^-8mol/L
[25] = test system: Enterococcus faecium; assay: Antibacterial activity against Enterococcus faecium ATCC 19434 assessed as inhibition of bacterial growth incubated for 24 hrs; type: functional
[26] = test system: Pseudomonas aeruginosa; assay: Antibiofilm activity in Pseudomonas aeruginosa assessed as biofilm eradication measured after 24 hrs by crystal violet staining based analysis; type: functional, organism-based; conditions: dose 1-2 µg/ml
[27] = test system: Pseudomonas aeruginosa; assay: Induction of intracellular ROS generation in Pseudomonas aeruginosa assessed as increase in fluorescence intensity at 2 ug/ml incubated for 6 hrs in presence of N-acetyl-L-cysteine by DCFH-DA dye based fluorescence analysis; type: functional, organism-based; conditions: dose 2.0 µg/ml
[28] = test system: Enterococcus faecalis; assay: Antibacterial activity against vancomycin-resistant Enterococcus faecalis clinical isolate p1-2007226001 assessed as inhibition of bacterial growth incubated for 24 hrs; type: functional
[29] = test system: Staphylococcus aureus; assay: Antibacterial activity against methicillin resistant Staphylococcus aureus assessed as reduction in metabolic activity by measuring reduction in fluorescence intensity at 0.5 to 2 times MIC incubated for 6 hrs by alamar blue assay; type: functional, organism-based
[30] = test system: Calf thymus DNA; assay: Binding affinity to calf thymus DNA assessed as disruption of DNA confirmation by measuring blue shift at 0 to 3.3x10^-8mol/L by UV absorption spectra based analysis; type: nucleic-acid assay; conditions: Bos taurus; dose 0-3.3 10^-8mol/L
[31] = test system: Pseudomonas aeruginosa; assay: Antibacterial activity against Pseudomonas aeruginosa assessed as reduction in metabolic activity by measuring reduction in fluorescence intensity at 0.5 to 2 times MIC incubated for 6 hrs by alamar blue assay; type: functional, organism-based
[32] = test system: Streptococcus pyogenes; assay: Antibacterial activity against Streptococcus pyogenes ATCC 19615 assessed as inhibition of bacterial growth incubated for 24 hrs; type: functional
[33] = test system: Pseudomonas aeruginosa; assay: Induction of intracellular ROS generation in Pseudomonas aeruginosa assessed as increase in fluorescence intensity at 2 ug/ml incubated for 6 hrs by DCFH-DA dye based fluorescence analysis; type: functional, organism-based; conditions: dose 2.0 µg/ml
[34] = test system: Enterococcus faecalis; assay: Antibacterial activity against vancomycin-resistant Enterococcus faecalis clinical isolate p1-2007225053 assessed as inhibition of bacterial growth incubated for 24 hrs; type: functional
[35] = test system: Staphylococcus aureus; assay: Antibacterial activity against Staphylococcus aureus ATCC 6538 assessed as inhibition of bacterial growth incubated for 24 hrs; type: functional
[36] = test system: Staphylococcus aureus; assay: Antibiofilm activity in methicillin resistant Staphylococcus aureus assessed as biofilm eradication measured after 24 hrs by crystal violet staining based analysis; type: functional, organism-based; conditions: dose 1-2 µg/ml
[37] = test system: Staphylococcus aureus; assay: Antibacterial activity against methicillin-resistant Staphylococcus aureus ATCC 43300 assessed as inhibition of bacterial growth incubated for 24 hrs; type: functional
[38] = test system: Staphylococcus aureus; assay: Resistance development in methicillin resistant Staphylococcus aureus assessed as increase in MIC measured after 20 days; type: functional, organism-based; conditions: time 20.0 day
[39] = Hemolytic activity in human Red blood cells at 256 ug/ml measured after 1.5 hrs by absorbance based assay relative to control; type: toxicity, cell-based, Erythrocyte; conditions: red blood cells (erythrocytes), at 256 µg/mL, read-out: Activity

C[C@H]1COc2c(CC(=O)O)c(F)cc3c(=O)c(C(=O)O)cn1c23
Ratio [1]: 16 | MIC [2]: 1 µg/mL (≈ 3.11 µM) | MIC [3]: 16 µg/mL (≈ 49.8 µM) | Ratio [4]: 2 | MIC [5]: 0.5 µg/mL (≈ 1.56 µM) | MIC [6]: 8 µg/mL (≈ 24.9 µM) | MIC [7]: 1 µg/mL (≈ 3.11 µM) | MIC [8]: 1 µg/mL (≈ 3.11 µM) | MIC [9]: 0.5 µg/mL (≈ 1.56 µM) | MIC [10]: 1 µg/mL (≈ 3.11 µM) | MIC [11]: 32 µg/mL (≈ 99.6 µM) | MIC [12]: 0.25 µg/mL (≈ 0.778 µM) | MIC [13]: 0.5 µg/mL (≈ 1.56 µM)

C#CCn1cc(C(=O)O)c(=O)c2cc(F)c(CC#N)cc21
MIC [14]: 4 µg/mL (≈ 14.1 µM) | Activity [15]: Active | MIC [16]: 2 µg/mL (≈ 7.04 µM) | MIC [17]: 32 µg/mL (≈ 113 µM) | MIC [2]: 1 µg/mL (≈ 3.52 µM) | MIC [3]: 256 µg/mL (≈ 901 µM) | Activity [18]: inactive | MIC [19]: 16 µg/mL (≈ 56.3 µM) | inhibition (INH) [20]: ~100% | MIC [21]: 4 µg/mL (≈ 14.1 µM) | Activity [22]: Active | HC5 [23]: > 10000 µg/mL | Activity [24]: Active | MIC [25]: 4 µg/mL (≈ 14.1 µM) | Activity [26]: Dose-Dependent Effect | Activity [27]: inactive | MIC [28]: 16 µg/mL (≈ 56.3 µM) | Activity [29]: Active | Activity [30]: Active | Activity [31]: Active | MIC [32]: 1 µg/mL (≈ 3.52 µM) | MIC [5]: 1 µg/mL (≈ 3.52 µM) | Activity [33]: Active | MIC [34]: 8 µg/mL (≈ 28.1 µM) | MIC [6]: 2 µg/mL (≈ 7.04 µM) | MIC [35]: 2 µg/mL (≈ 7.04 µM) | MIC [7]: 1 µg/mL (≈ 3.52 µM) | Activity [36]: Dose-Dependent Effect | MIC [8]: 0.5 µg/mL (≈ 1.76 µM) | MIC [9]: 0.25 µg/mL (≈ 0.88 µM) | MIC [37]: 4 µg/mL (≈ 14.1 µM) | MIC [10]: 0.5 µg/mL (≈ 1.76 µM) | Activity [38]: inactive | MIC [11]: 0.25 µg/mL (≈ 0.88 µM) | MIC [12]: 0.5 µg/mL (≈ 1.76 µM) | MIC [13]: 1 µg/mL (≈ 3.52 µM) | hemolysis at 1.5 h, 256 ug/ml [39]: < 1%
